Results taken from patent US20130121921A1, “Rodent Therapeutic Model And Methods” (The Christus Stehlin Foundation For Cancer Research, priority 2011, published 2013).

Key:
human tumors [1] = test: xenograft test repeated in mice with higher percentage of human bone marrow and hepatocytes; assay type: in vivo, mouse; details: less humanized vs more humanized group
Protocol: The procedures in any one or combination of Examples 1-4 are performed with mice having a higher percentage of human bone marrow and hepatocytes. Rather than having a non-human control, the control can be instead, or in addition, mice having the percentage of human bone marrow (and/or human cord blood) used in the experimental group in the first performance of the procedures. Double humanized mice are further supplemented with human or humanized intestinal enzymes to form a triply humanized mouse (bone marrow, liver, and intestinal enzymes), which is then be used as a predictor of human response to anticancer agents. A mouse having humanized intestinal enzymes can be constructed, for example, as described in van Herwaarden et al., J. Clin. Invest., 117 (11):3583-3592, 2007. […] A human dose for CPT can be redetermined and suitability of the drug for treatment of humans can be redetermined.

humanized NSG mice = test: toxicity of CPT given by gavage to humanized and non-humanized NSG mice (weight, blood cell counts); assay type: in vivo, mouse
Protocol: Once maximum engraftment is reached as measured in Example 1 or 2, initial validation experiments are performed. A reasonable number of doubly humanized mice are obtained within approximately 5 to 6 months from the start of the humanizing process, i.e., 10-12 NSG mice with a >80% human BM and a >60% HSA in their blood. […] Camptothecin (CPT) is administered by gavage to humanized and non-humanized mice. At normal pH, CPT exists in equilibrium between two states: lactone and carboxylate. In the mouse, equilibrium is around 50% for each isoform. However, in human blood, due to an affinity for human serum albumin (HSA), the equilibrium moves towards the carboxylate form, leaving only 3%-5% total CPT in the active lactone form, see Giovanella et al., Annals New York Academy of Sciences 922: 27-35, 2000. The double humanized mouse can act akin to a human in this respect. Higher and higher doses of CPT are administered starting with a dose of 0.5 mg/kg orally by gavage given daily for 5 days followed by 2 days of rest for 3 weeks. Animals are weighed twice a week and their weight recorded. Blood is taken twice a week and blood cells counted. If no toxicity is found, the dose is raised by 50% and the procedure repeated until toxicity is obtained.

human tumors [2] = test: human tumors xenotransplanted subcutaneously in humanized and non-humanized NSG mice, treated at MTD of CPT; assay type: in vivo, mouse; details: non-humanized vs humanized group, each at its own MTD
Protocol: Once a maximum tolerated dose (MTD) for humanized NSG mice and MTD for non-humanized ones is obtained using the procedure described in Example 3, final validation experiments are performed. Six human tumors are xenotransplanted subcutaneously on the dorsal flank in humanized and non-humanized NSG mice. Once the tumors become palpable, the animals are treated with the MTD dose of CPT of their group, i.e., the humanized mice with the humanized MTD and the non-humanized mice with their MTD. The tumors are measured with calipers twice a week and the results recorded. […] A human dose for CPT can be determined and suitability of the drug for treatment of humans can be determined. The experiments can be performed substituting one or more drugs in place of CPT. The experiments can be performed using one or more drugs in addition to CPT. The experiments can be performed by using introduction of human leukemia cancer cells or other non-solid tumor human cancer cells into the rodent instead of xenotransplantation of solid tumors. Such cancers can be evaluated based on alternative metrics such as cell count.

[3] = molecular target: human serum albumin (HSA) (Homo sapiens, UniProt P02768); details: human blood, equilibrium moved towards carboxylate by affinity for HSA; cited from earlier work
[4] = in the mouse, normal pH; cited from earlier work

Sequence of human serum albumin (HSA) (P02768 25-609): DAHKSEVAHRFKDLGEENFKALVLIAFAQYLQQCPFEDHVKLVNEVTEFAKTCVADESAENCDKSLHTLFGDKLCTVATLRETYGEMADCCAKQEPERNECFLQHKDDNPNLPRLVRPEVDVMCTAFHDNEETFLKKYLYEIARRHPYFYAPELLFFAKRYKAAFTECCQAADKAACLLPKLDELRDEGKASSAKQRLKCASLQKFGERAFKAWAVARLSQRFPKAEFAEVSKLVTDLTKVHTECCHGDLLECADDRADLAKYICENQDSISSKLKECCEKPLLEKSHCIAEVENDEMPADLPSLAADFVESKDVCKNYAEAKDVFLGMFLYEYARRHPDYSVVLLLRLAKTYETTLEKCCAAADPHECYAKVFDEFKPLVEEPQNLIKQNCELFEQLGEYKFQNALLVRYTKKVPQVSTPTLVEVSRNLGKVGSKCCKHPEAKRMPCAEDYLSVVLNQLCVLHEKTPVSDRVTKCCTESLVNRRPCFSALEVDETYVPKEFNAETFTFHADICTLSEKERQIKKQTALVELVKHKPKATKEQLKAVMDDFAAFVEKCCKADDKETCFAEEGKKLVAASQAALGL

## CC[C@@]1(O)C(=O)OCc2c1cc1n(c2=O)Cc2cc3ccccc3nc2-1 [CPT, Camptothecin]
Human tumors [1]
  anticancer activity (relative size of the tumors): higher anticancer activity of CPT in the less humanized group
Humanized NSG mice; human bone marrow cells vs mouse cells
  sensitivity of human bone marrow cells present in the mouse: more sensitive to camptothecin than mouse cells
Humanized NSG mice; humanized NSG mice, relation to percentage of human bone marrow
  hematological toxicity of CPT: directly proportional to the percentage of human bone marrow
Humanized NSG mice; oral gavage from 0.5 mg/kg daily x5, 2 days rest, 3 weeks, dose raised by 50%, humanized vs non-humanized mice
  toxicity of CPT for humanized mice: Higher toxicity
Human tumors [2]
  anticancer activity (relative size of the tumors): much higher anticancer activity of CPT in the non-humanized group
[3]
  total CPT in the active lactone form: 3%-5%
[4]
  equilibrium share of each isoform (lactone and carboxylate): around 50%
